According to patent US8188135B2, “Compounds as cannabinoid receptor ligands” (priority 2008, dated 2012):
Like-named read-outs stand apart in the source and are kept apart here.

What was measured:
[1] = biological target: T1, human CB2 receptors (Homo sapiens, UniProt P34972); assay: human CB2 radioligand binding assay ([3H]CP 55,940 competition); settings: HEK293 membranes, 0.5 nM [3H]CP 55,940
T1 construct: expressed in transfected cells; host or cells: HEK293
In short: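 Displacement of 0.5 nM [3H]CP 55,940 over 0.01 nM-10 μM test compound, measured on human CB2 membranes from stably transfected HEK293 cells. Incubation 90 min at 30 °C in Tris/EDTA/MgCl2/BSA, pH 7.4, then filter-bound radioactivity counted; 10 μM unlabeled CP 55,940 defined nonspecific binding.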

[2] = biological target: T2, rat CB2 (Rattus norvegicus, UniProt Q9QZN9); assay: rat CB2 radioligand binding assay ([3H]CP 55,940 competition); design: expressed in transfected cells; host or cells: HEK293; settings: HEK293 membranes, 0.5 nM [3H]CP 55,940
T2 sequence (Q9QZN9 1-360): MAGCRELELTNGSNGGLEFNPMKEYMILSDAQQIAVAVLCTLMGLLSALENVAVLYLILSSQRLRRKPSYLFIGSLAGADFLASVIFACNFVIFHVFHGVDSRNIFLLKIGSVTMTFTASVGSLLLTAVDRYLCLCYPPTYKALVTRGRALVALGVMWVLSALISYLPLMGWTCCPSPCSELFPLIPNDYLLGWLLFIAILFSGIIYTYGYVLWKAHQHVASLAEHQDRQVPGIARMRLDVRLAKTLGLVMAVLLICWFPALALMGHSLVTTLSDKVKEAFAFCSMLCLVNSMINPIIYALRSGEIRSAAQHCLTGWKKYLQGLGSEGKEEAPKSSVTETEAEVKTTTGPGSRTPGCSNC
In short: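 Competition binding against 0.5 nM [3H]CP 55,940 (pH 7.4 buffer with 0.5 mg/mL BSA, 30 °C, 45 min), with displacers spanning 0.01 nM–10 μM at five concentrations. Receptor source: stably transfected HEK293 membranes, 20 μg/well. Nonspecific binding defined by 10 μM unlabeled CP 55,940; readout by filtration and counting.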

T1 sequence (P34972 whole entry): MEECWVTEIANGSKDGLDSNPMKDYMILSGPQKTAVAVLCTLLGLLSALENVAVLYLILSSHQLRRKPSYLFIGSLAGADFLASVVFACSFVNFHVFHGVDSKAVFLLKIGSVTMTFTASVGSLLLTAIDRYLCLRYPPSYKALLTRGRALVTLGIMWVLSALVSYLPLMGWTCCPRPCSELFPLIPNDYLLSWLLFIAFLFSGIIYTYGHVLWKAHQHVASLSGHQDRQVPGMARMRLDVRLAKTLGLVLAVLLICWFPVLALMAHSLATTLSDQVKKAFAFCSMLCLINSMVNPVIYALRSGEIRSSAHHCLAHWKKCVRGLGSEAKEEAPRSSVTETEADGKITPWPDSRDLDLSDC

C[C@@H](O)[C@@H](C)Oc1ccc(C(F)(F)F)cc1C(=O)/N=c1\cc(C(C)(C)C)n(C)n1C[C@H]1CCCO1 [Example 104, N-{(3E)-5-tert-butyl-1-methyl-2-[(2R)-tetrahydrofuran-2-ylmethyl]-1,2-dihydro-3 H-pyrazol-3-ylidene}-2-{[(1R,2R)-2-hydroxy-1-methylpropyl]oxy}-5-(trifluoromethyl)benzamide]
Ki ([1]; read-out: human CB2 (Ki)): > 1000 nM | Ki ([2]; read-out: rat CB2 (Ki)): 317 nM

Cn1c(C(C)(C)C)c/c(=N\C(=O)c2cc(C(F)(F)F)ccc2OC[C@@H](O)CNC(C)(C)C)n1C[C@H]1CCCO1 [Example 105, 2-{[(2S)-3-(tert-butylamino)-2-hydroxypropyl]oxy}-N-{(3E)-5-tert-butyl-1-methyl-2-[(2R)-tetrahydrofuran-2-ylmethyl]-1,2-dihydro-3H-pyrazol-3-ylidene}-5-(trifluoromethyl)benzamide]
Ki ([1]; read-out: human CB2 (Ki)): > 1000 nM | Ki ([2]; read-out: rat CB2 (Ki)): 406 nM

Cn1c(C(C)(C)C)c/c(=N\C(=O)c2cc(C(F)(F)F)ccc2OCC(C)(C)O)n1CC1CCCC1 [Example 106, N-[(3E)-5-tert-butyl-2-(cyclopentylmethyl)-1-methyl-1,2-dihydro-3H-pyrazol-3-ylidene]-2-(2-hydroxy-2-methylpropoxy)-5-(trifluoromethyl)benzamide]
Ki ([1]; human CB2 (Ki, nM)): 6.6 nM | Ki ([2]; rat CB2 (Ki, nM)): 8.7 nM

C=C[C@H](O)COc1ccc(C(F)(F)F)cc1C(=O)/N=c1\cc(C(C)(C)C)n(C)n1C[C@H]1CCCO1 [Example 107, N-{(3E)-5-tert-butyl-1-methyl-2-[(2R)-tetrahydrofuran-2-ylmethyl]-1,2-dihydro-3 H-pyrazol-3-ylidene}-2-{[(2S)-2-hydroxybut-3-enyl]oxy}-5-(trifluoromethyl)benzamide]
Ki ([1]; human CB2 (Ki, nM)): 2.4 nM | Ki ([2]; rat CB2 (Ki, nM)): 2.9 nM

CCCCn1/c(=N/C(=O)c2cc(C#N)ccc2OCC(C)(C)O)cc(C(C)(C)C)n1C [Example 108, N-[(3E)-2-butyl-5-tert-butyl-1-methyl-1,2-dihydro-3H-pyrazol-3-ylidene]-5-cyano-2-(2-hydroxy-2-methylpropoxy)benzamide]
Ki ([1]; read-out: human CB2 (Ki)): > 1000 nM | Ki ([2]; read-out: rat CB2 (Ki)): 288 nM

CC[C@H](O)COc1ccc(C(F)(F)F)cc1C(=O)/N=c1\cc(C(C)(C)C)n(C)n1C[C@H]1CCCO1 [Example 109, N-{(3E)-5-tert-butyl-1-methyl-2-[(2R)-tetrahydrofuran-2-ylmethyl]-1,2-dihydro-3H-pyrazol-3-ylidene}-2-{[(2S)-2-hydroxybutyl]oxy}-5-(trifluoromethyl)benzamide]
Ki ([1]; human CB2 (Ki, nM)): 1.3 nM | Ki ([2]; rat CB2 (Ki, nM)): 1.2 nM

CCC(C)(O)COc1ccc(C(F)(F)F)cc1C(=O)/N=c1\cc(C(C)(C)C)n(C)n1C[C@H]1CCCO1 (stereo partly drawn) [Example 110, N-{(3E)-5-tert-butyl-1-methyl-2-[(2R)-tetrahydrofuran-2-ylmethyl]-1,2-dihydro-3H-pyrazol-3-ylidene}-2-(2-hydroxy-2-methylbutoxy)-5-(trifluoromethyl)benzamide]
Ki ([1]; human CB2 (Ki, nM)): 3.5 nM | Ki ([2]; rat CB2 (Ki, nM)): 1.6 nM

CC(C)[C@H](O)COc1ccc(C(F)(F)F)cc1C(=O)/N=c1\cc(C(C)(C)C)n(C)n1C[C@H]1CCCO1 [Example 111, N-{(3E)-5-tert-butyl-1-methyl-2-[(2R)-tetrahydrofuran-2-ylmethyl]-1,2-dihydro-3H-pyrazol-3-ylidene}-2-{[(2S)-2-hydroxy-3-methylbutyl]oxy}-5-(trifluoromethyl)benzamide]
Ki ([1]; human CB2 (Ki, nM)): 1.8 nM | Ki ([2]; rat CB2 (Ki, nM)): 1 nM

Cn1c(C(C)(C)C)c/c(=N\C(=O)c2cc(C(F)(F)F)ccc2OC[C@@H](O)C(C)(C)C)n1C[C@H]1CCCO1 [Example 112, N-{(3E)-5-tert-butyl-1-methyl-2-[(2R)-tetrahydrofuran-2-ylmethyl]-1,2-dihydro-3H-pyrazol-3-ylidene}-2-{[(2S)-2-hydroxy-3,3-dimethylbutyl]oxy}-5-(trifluoromethyl)benzamide]
Ki ([1]; human CB2 (Ki, nM)): 6.7 nM | Ki ([2]; rat CB2 (Ki, nM)): 1.9 nM
